Measurements from US20110269695A1, “NOVEL ANTI-AGING PEPTIDES AND COSMETIC AND/OR PHARMACEUTICAL COMPOSITION CONTAINING SAME” (ISP INVESTMENTS, priority 2009, published 2011).
Where no end group is shown, it is not given here.

What was measured:
[1] = tested on: Clock protein; assay: Immunolabeling of Clock protein in skin biopsies ex vivo; type: cell-based, human; details: treated skin
Method: (§1) A study of the activating effect of the peptide SEQ ID no. 3 was carried out by evaluating the expression of Clock, Per-1 and BMAL-1 proteins in skin biopsies ex vivo.
(§2) Ex vivo studies by immunolabeling have made it possible to evidence the expression of Clock, Per-1 and BMAL-1 proteins in skin samples. Samples of human skin are cultured at the air/liquid interface. The peptide SEQ ID no. 3 diluted to 1% (from a 10^−4M solution) is applied topically to these samples for 48 hr.
(§3) Skin samples not treated with the peptide SEQ ID no. 3 serve as a control. The skin samples are fixed with 10% formaldehyde and enclosed in paraffin. Sectional cuts of 3 μm are then made with a microtome. The immunolabeling is carried out after removal of the paraffin and unmasking of the antigenic sites. The immunolabeling for the Clock protein is carried out by means of an antibody (ABcam) diluted 1/250 and a secondary antibody diluted 1/50 and coupled to a fluorochrome.
(§4) The slides are then mounted in a suitable medium and observed under epifluorescence microscope (Nikon Eclipse E600).

[2] = tested on: Per-1 protein; assay: Immunolabeling of Per-1 protein in skin biopsies ex vivo; type: cell-based, human; details: treated skin
Method: as §1, §2, §3
The immunolabeling for the Per-1 protein is carried out by a polyclonal antibody (Cosmobio) diluted 1/100 and a secondary antibody diluted 1/50 and coupled to a fluorochrome.
as §4

[3] = tested on: BMAL-1 protein; assay: Immunolabeling of BMAL-1 protein in skin biopsies ex vivo; type: cell-based, human; details: treated skin
Method: as §1, §2, §3
The immunolabeling for the BMAL-1 protein is carried out by a polyclonal antibody (Aviva Systems Biology) diluted 1/120 and a secondary antibody diluted 1/50 and coupled to a fluorochrome.
as §4

[4] = tested on: Clock protein; assay: Immunolabeling of Clock protein in skin samples aged artificially during culture; type: cell-based, human
Method: A study of the activating effect of the peptide SEQ ID no. 3 was carried out by evaluating the expression of the Clock protein in skin models, aged artificially during culture. The analysis was carried out after 62 hr and 134 hr of culturing.
Ex vivo studies by immunolabeling have made it possible to evidence the expression of the Clock protein in skin samples aged during culture. Samples of human skin are cultured at the air/liquid interface for 62 hr and 134 hr. The peptide SEQ ID no. 1 diluted to 1% (from a 10^−4M solution) is applied topically to these samples at a rate of two times per day during the period of the experiment.
Skin samples not treated with the peptide SEQ ID no. 3 serve as a control. The skin samples are fixed with 10% formaldehyde and enclosed in paraffin. Sectional cuts of 3 μm are made with a microtome. The immunolabeling is carried out after removal of the paraffin and unmasking of the antigenic sites. The immunolabeling for the Clock protein is carried out by means of an anti-rabbit antibody (ABcam) diluted 1/250 and a secondary antibody diluted 1/50 and coupled to a fluorochrome.
as §4

[5] = tested on: cultured fibroblasts; assay: Beta-galactosidase (X-gal) senescence labeling of cultured fibroblasts; type: cell-based; details: peptide diluted to 1%, once a day, versus untreated control cells
Method: A study of the anti-aging effect of the peptide SEQ ID no. 3 was carried out by evaluating the activity of the beta-galactosidase on cultured fibroblasts in the short and long term. In fact, beta-galactosidase is known to be present in senescent cells whereas beta-galactosidase activity is not found in pre-senescent, quiescent or immortal cells.
Fibroblasts cultured in 8-well labtecks are kept for 2 weeks (short term effect) or 7 weeks (long term effect) in the presence or absence of the peptide SEQ ID no. 3, diluted to 1% (from a 10^−4M solution). The treatment is carried out once a day. The cells which were untreated, but kept in culture for 2 or 7 weeks per the requirements of the experiment serve as controls. On the day of labeling, the cells are rinsed, fixed in a mixture (2% glutaraldehyde-2% formaldehyde) for 3 minutes. The cells are rinsed and 300 μl of (5-bromo-4-chloro-3 indolyl b-D-galactosidase), known commonly as X-gal (substrate of beta-galactosidase), are applied. Incubation is carried out for 24 hr in an incubator in the presence of CO2, then the cells are rinsed and the labteck is quickly placed in a suitable medium. Observation is carried out under transmission microscope. The principle is simple: when the cells are senescent and contain beta-galactosidase, the X-gal substrate is cleaved into a blue, insoluble product.

[6] = tested on: Clock protein; assay: Western blot of Clock protein expression in cultured fibroblasts; type: cell-based
Method: A study of the activating effect of the peptide SEQ ID no. 2 was carried out by evaluating the expression of the Clock proteins by western blot in cultured fibroblasts. The technique of western blotting is a semi-quantitative method which makes it possible to evaluate the level of Clock proteins in cells.
Cultured fibroblasts are cultivated in containers with a diameter of 100 mm at 37° C. in a humidified atmosphere containing 5% CO2 for 18 hr in the presence or absence of the peptide SEQ ID no. 2, diluted to 1% (from a 10^−4M solution). The cells are rinsed and then removed from the support with the aid of an extraction buffer (20 mM TRIS, 150 mM NaCl, 10 mM EDTA, 0.2% triton […]) in the presence of a cocktail of protease inhibitors (Sigma). The proteins thus extracted are centrifuged at 4° C. at 10,000 rpm for 10 minutes, before being dosed by the BCA protein dosing kit (Pierce). The cellular lysates are mixed with a denaturing buffer and subjected to SDS-PAGE electrophoresis. The gel used is 4-12% Nupage (Invitrogen). The proteins are then transferred to a nitrocellulose membrane (Pal corporation). […] The quantitative evaluation of the proteins present in the cells was carried out using the chemiimager software (Alpha innotech Corporation USA).

Substance	amount of Clock protein versus untreated skin [1]	amount of PER-1 protein versus untreated skin [2]	amount of BMAL-1 protein versus untreated skin [3]	labeling of the Clock protein compared to untreated control, 62 hr ([4]; after 62 hr of culturing)	labeling of the Clock protein compared to untreated control, 134 hr ([4]; after 134 hr)	Beta-galactosidase activity (blue coloration), short term ([5]; 2 weeks)	Beta-galactosidase activity (blue coloration), long term ([5]; 7 consecutive weeks)	Intensity (%) of Clock protein, Experiment 1 ([6]; 1% treatment (from a 10^-4M solution), 18 hr, cultured fibroblasts, luminous intensity compared to untreated control (100%)) [%]	amount of Clock protein in the cultured fibroblasts ([6]; peptide diluted to 1%, western blot)
Ser-Thr-Pro-NH2 [SEQ ID no. 3]	greater	greater	greater	increased	largely increased	largely reduced	largely reduced	–	–
Val-Ser-Thr-Pro-Glu-NH2 (VSTPE-NH2) [SEQ ID no. 2]	–	–	–	–	–	–	–	154	significantly increases
